The values that follow come from patent US20240199623A1 (ILDONG PHARMACEUTICAL CO., LTD., priority 2020, published 2024).

Series [1] concerns the target T1, human wild type-CFTR (Homo sapiens, UniProt P13569). Briefly: Cell-based YFP assay. More on the design: expressed in transfected cells; host or cells: CHO-K1 (Chinese hamster ovary). Conditions: CHO-K1 cells expressing human wild type-CFTR and YFP-H148Q/I152L; forskolin 20 μM = 100% activity; read-out: Cell-based YFP Assay (EC50) Concentration Range. Summed up:
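CHO-K1 cells co-expressing human wild-type CFTR and YFP-H148Q/I152L halide sensor, grown 48 h at 37 °C, then in PBS. YFP quenching by I⁻ influx read at 37 °C after adding 140 mM I⁻ solution, sampled every 0.4 s for 14 s. Triplicates averaged; EC50 fitted.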

In series [2] the target is T1, human wild type-CFTR. Nature of the series: Short-circuit current measurement. Conditions: FRT cells expressing human wild type-CFTR; Forskolin 20 μM signal used as 100% activity; read-out: Short-circuit current measurement (EC50) Concentration range. The format is cell-based. More on the design: expressed in transfected cells. Summed up: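 Ussing-chamber short-circuit current in FRT cells expressing human wild-type CFTR, grown on Snapwell inserts. Forskolin, test compounds and CFTRinh-172 added to both apical and basolateral baths; apical membrane current and Isc sampled at 4 Hz.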

For a further series, the target named is T2, Human recombinant PDE4C1 (Homo sapiens, UniProt Q08493).
T2 construct: purchased BPS Bioscience; host or cells: insect Sf9 cells
T2 sequence (Q08493 whole entry): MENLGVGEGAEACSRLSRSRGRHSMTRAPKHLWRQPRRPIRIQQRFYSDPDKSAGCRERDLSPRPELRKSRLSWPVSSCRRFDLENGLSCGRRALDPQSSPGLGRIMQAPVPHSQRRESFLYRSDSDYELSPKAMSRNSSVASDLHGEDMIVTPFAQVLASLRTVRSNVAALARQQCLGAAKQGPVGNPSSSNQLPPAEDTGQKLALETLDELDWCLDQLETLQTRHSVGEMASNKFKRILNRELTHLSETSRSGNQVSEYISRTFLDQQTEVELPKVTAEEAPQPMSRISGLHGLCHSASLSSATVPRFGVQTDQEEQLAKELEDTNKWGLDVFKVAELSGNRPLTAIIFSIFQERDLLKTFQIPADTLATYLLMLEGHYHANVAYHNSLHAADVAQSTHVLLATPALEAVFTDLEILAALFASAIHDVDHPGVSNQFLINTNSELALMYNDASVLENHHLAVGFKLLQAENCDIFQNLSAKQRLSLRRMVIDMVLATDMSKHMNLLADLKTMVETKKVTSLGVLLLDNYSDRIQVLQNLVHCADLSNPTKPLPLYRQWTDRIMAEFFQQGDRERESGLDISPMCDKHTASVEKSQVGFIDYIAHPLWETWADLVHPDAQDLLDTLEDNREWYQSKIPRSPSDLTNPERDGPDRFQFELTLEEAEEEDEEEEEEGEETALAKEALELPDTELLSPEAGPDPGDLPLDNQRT
Nature of the series: Human phosphodiesterase 4 (PDE4) inhibition, PDE4C1. Conditions: read-out: % inhibition range at 10 uM PDE4C1; 10 uM test compound. Type of series: biochemical. Here is the method: (§1) […] Human recombinant PDE4A1A, PDE4B 1, PDE4C1 and PDE4D2 are respectively expressed in each host cell (insect Sf9 cells, BPS Bioscience). Preincubation of 10 μM test compounds or vehicle was proceeded with 20 ng/ml PDE4A1A or 4 ng/ml PDE4B 1 or 8 ng/ml PDE4C1 or 5 ng/ml PDE4D2 enzyme in Tris-HCl buffer pH 7.2 for 15 minutes at 25° C. 100 nM fluorescein (FAM) labeled cAMP for another 30 minutes incubation period was added in order to initiate the enzymatic reaction and addition of IMAP binding solution was followed for its termination. Specifically, IMAP complexes with phosphate groups on nucleotide monophosphate generated from cyclic nucleotides through PDE activity. The amount of complex formed is determined by reading spectrofluorimetrical signal at 470 nm/525 nm.

For series [3], the target named is T3, Human recombinant PDE4B 1 (Homo sapiens, UniProt Q07343).
T3 construct: purchased BPS Bioscience; host or cells: insect Sf9 cells
T3 sequence (Q07343 whole entry): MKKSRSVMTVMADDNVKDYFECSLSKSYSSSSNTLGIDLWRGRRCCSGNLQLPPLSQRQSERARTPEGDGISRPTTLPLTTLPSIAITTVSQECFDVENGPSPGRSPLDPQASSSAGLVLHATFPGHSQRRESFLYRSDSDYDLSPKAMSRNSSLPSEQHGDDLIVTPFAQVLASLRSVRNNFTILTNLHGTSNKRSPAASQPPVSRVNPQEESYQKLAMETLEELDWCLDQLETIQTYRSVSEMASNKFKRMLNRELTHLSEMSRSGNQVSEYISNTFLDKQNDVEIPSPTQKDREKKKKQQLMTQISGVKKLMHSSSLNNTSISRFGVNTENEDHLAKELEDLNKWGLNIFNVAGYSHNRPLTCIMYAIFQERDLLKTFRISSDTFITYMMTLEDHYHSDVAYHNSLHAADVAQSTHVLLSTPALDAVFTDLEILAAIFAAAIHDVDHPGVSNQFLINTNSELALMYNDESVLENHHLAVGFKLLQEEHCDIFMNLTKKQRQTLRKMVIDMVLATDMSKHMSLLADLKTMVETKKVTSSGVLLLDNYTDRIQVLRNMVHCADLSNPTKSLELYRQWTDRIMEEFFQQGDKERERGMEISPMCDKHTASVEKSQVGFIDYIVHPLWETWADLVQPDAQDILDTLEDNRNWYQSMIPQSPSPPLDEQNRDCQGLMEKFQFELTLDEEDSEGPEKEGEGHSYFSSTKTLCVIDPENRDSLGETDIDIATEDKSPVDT
Nature of the series: Human phosphodiesterase 4 (PDE4) inhibition, PDE4B 1. Conditions: read-out: % inhibition range at 10 uM PDE4B1; 10 uM test compound. Type of series: biochemical. Here is the method:
as §1

A further series deals with T4, Human recombinant PDE4D2 (Homo sapiens, UniProt Q08499).
T4 construct: purchased BPS Bioscience; host or cells: insect Sf9 cells
T4 sequence (Q08499 303-809 limits assumed): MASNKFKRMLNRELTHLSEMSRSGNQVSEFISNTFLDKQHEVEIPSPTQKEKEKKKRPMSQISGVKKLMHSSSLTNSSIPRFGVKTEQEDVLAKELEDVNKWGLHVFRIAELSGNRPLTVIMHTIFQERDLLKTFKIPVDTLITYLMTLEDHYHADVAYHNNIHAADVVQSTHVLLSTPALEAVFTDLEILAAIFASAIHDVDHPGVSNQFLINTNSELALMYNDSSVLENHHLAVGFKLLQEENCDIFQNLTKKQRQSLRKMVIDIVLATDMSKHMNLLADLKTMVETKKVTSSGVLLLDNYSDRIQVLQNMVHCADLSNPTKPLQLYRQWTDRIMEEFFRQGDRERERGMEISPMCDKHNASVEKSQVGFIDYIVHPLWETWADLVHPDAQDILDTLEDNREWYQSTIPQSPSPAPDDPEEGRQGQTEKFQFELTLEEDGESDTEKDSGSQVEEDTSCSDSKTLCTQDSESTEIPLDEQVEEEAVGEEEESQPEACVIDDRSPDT
Nature of the series: Human phosphodiesterase 4 (PDE4) inhibition, PDE4D2. Type of series: biochemical. Conditions: read-out: % inhibition range at 10 uM PDE4D2; 10 uM test compound. Here is the method:
as §1

Series [4] concerns the target T5, Human recombinant PDE4A1A (Homo sapiens, UniProt P27815).
T5 construct: purchased BPS Bioscience; host or cells: insect Sf9 cells
Briefly: Human phosphodiesterase 4 (PDE4) inhibition, PDE4A1A. Type of series: biochemical. Conditions: read-out: % inhibition range at 10 uM PDE4A1A; 10 uM test compound. The method, then: as §1

Series [5] in a line: Phosphate-buffered saline (PBS) solubility of compounds. Type of series: physicochemical. Conditions: aqueous buffer, thermodynamic from solid, PBS pH 7.5, 0.5 mg/mL, vortexed 90 min, filtered, LC-MS/MS, read-out: Solubility Range. Here is the method:
PBS solutions (pH 7.5) were prepared according to the following compositions and stored at 4° C. Test compounds were dissolved in PBS (pH 7.5) at 0.5 mg/mL and vortexed for 90 min. The PBS solution was sequentially filtered through a 0.45, 1.2, […] syringe filter. Concentration of test compounds were determined using LC-MS/MS with appropriate dilution of the samples.

Converted amounts (≈) assume the structure as drawn.

T1 sequence (P13569 whole entry): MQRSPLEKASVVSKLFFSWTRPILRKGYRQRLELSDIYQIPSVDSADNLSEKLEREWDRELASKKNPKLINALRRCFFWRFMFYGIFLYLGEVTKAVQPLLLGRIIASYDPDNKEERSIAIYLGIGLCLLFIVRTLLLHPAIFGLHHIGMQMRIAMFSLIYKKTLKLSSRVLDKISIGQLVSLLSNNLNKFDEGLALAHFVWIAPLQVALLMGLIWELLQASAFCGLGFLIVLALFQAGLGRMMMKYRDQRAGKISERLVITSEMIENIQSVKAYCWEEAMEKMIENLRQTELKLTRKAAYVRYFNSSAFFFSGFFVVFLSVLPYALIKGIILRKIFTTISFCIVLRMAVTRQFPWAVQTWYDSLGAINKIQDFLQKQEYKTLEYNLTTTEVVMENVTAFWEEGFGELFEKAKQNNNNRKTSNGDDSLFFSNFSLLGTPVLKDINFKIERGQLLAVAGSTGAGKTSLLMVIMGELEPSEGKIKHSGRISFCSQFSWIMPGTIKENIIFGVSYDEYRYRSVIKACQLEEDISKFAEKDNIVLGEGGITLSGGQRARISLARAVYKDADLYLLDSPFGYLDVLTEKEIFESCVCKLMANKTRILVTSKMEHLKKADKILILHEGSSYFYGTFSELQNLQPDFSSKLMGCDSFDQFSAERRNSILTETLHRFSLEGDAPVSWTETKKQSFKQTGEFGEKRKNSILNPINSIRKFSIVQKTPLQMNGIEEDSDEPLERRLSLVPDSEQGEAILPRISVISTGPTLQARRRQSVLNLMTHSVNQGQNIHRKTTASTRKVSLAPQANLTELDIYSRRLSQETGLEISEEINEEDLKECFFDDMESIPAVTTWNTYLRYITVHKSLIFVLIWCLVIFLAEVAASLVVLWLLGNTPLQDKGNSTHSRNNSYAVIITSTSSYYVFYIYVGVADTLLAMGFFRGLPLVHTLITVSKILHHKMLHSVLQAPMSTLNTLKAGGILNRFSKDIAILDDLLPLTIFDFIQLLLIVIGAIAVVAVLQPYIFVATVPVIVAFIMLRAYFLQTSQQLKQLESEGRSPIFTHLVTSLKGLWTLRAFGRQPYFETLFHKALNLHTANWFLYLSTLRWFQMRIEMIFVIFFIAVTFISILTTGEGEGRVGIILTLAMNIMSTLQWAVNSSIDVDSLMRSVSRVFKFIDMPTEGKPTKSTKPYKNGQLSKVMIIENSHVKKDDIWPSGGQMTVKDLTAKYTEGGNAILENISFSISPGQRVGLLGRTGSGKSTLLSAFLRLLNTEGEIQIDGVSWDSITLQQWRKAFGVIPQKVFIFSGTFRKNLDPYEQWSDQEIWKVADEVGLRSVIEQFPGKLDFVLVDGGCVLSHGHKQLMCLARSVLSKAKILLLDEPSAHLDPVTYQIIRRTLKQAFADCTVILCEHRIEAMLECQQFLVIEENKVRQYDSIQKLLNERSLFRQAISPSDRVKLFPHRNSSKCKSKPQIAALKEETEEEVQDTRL
T5 sequence (P27815 1-647 isoform P27815-4): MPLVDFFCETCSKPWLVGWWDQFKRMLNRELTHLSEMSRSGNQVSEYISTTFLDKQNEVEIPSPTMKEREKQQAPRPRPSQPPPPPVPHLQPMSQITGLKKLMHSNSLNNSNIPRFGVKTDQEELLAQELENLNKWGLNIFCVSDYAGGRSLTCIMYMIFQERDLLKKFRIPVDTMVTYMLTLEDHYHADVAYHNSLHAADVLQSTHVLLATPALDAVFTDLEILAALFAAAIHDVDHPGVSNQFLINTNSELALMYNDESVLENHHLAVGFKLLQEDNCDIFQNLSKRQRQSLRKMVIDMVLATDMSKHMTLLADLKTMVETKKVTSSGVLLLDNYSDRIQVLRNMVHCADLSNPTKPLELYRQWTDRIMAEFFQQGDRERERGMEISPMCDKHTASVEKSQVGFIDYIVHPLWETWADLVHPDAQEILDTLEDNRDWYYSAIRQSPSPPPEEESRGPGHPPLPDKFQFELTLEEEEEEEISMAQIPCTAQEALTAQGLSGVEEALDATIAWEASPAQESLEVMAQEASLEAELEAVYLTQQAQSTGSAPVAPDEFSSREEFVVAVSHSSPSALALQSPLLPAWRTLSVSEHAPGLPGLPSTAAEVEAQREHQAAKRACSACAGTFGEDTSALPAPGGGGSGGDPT

Usually inhibition stands for the relative decrease from the control value, in per cent. In the case of `COc1ccc(-c2ccnc3cc(NC(=O)Nc4ccc(C(=O)N5CCOCC5)cc4)nn23)cc1OC` [Compound 129, 1-(7-(3,4-dimethoxyphenyl)pyrazolo[1,5-a]pyrimidin-2-yl)-3-(4-(morpholine-4-carbonyl)phenyl)urea], the EC50 on human wild type-CFTR [1] was 200 to 2000 nM; on human wild type-CFTR [2], at least 2000 nM. For the same molecule, the inhibition at 10 µM (at Human recombinant PDE4C1; in series [3]; on Human recombinant PDE4D2; in series [4]) was over 80% in each case.
`COc1ccc(-c2ccnc3cc(C(=O)Nc4ccc(N5CCOCC5)cc4)nn23)cc1OC` [Compound 194, 7-(3,4-dimethoxyphenyl)-N-(4-morpholinophenyl)pyrazolo [1,5-a]pyrimidine-2-carboxamide]: the EC50 on human wild type-CFTR [1] is under 200 nM. Besides, the inhibition at 10 µM (on Human recombinant PDE4C1; in series [3]; at Human recombinant PDE4D2; in series [4]) was over 80% throughout.
As usually defined, the solubility is the concentration that dissolves in the medium under given conditions. `COc1ccc(-c2ccnc3cc(C(=O)Nc4ccc(C(=O)N5CCOCC5)cc4)nn23)cc1OC` [Compound 41, 7-(3,4-dimethoxyphenyl)-N-(4-(morpholine-4-carbonyl)phenyl)pyrazolo [1,5-a]pyrimidine-2-carboxamide]: the inhibition at 10 µM (on Human recombinant PDE4C1; in series [3]; at Human recombinant PDE4D2; in series [4]) was over 80% in each case. For the same molecule, the solubility at 90 min in series [5] was under 0.1 µg/mL.
Turning to `COc1ccc(-c2ccnc3cc(C(=O)N4CCN(C(=O)c5ccccc5)[C@@H](C)C4)nn23)cc1OC` [Compound 210, (S)-(4-benzoyl-3-methylpiperazin-1-yl)(7-(3,4-dimethoxyphenyl)pyrazolo[1,5-a]pyrimidin-2-yl)methanone], the inhibition at 10 µM (on Human recombinant PDE4C1; in series [3]; at Human recombinant PDE4D2; in series [4]) was over 80% in each case. Further, in series [5], the solubility at 90 min was in the range of 0.1 to 10 µg/mL (≈ 0.206 to 20.6 µM).
On to `COc1ccc(-c2ccnc3cc(C(=O)N4CCN(C(=O)c5ccccn5)[C@@H](C)C4)nn23)cc1OC` [Compound 380, (S)-(7-(3,4-dimethoxyphenyl)pyrazolo[1,5-a]pyrimidin-2-yl) (3-methyl-4-picolinoylpiperazin-1-yl)methanone], for which, at human wild type-CFTR [1], the EC50 is under 200 nM. Besides, the inhibition at 10 µM at Human recombinant PDE4C1 was 50 to 80%; in series [3], over 80%; on Human recombinant PDE4D2, over 80%; in series [4], over 80%.
In the case of `COc1ccc(-c2ccnc3cc(C(=O)N4CC[C@@H](NC(=O)c5ccccc5)C4)nn23)cc1OC` [Compound 384, (R)-N-(1-(7-(3,4-dimethoxyphenyl)pyrazolo[1,5-a]pyrimidine-2-carbonyl)pyrrolidin-3-yl)benzamide], the EC50 at human wild type-CFTR [1] was under 200 nM. The inhibition at 10 µM was 50 to 80% at Human recombinant PDE4C1, over 80% in series [3], over 80% on Human recombinant PDE4D2 and over 80% in series [4].
In the case of `COc1ccc(-c2ccnc3cc(C(=O)N4CCN(C(=O)c5cccs5)[C@@H](C)C4)nn23)cc1OC` [Compound 352, (S)-(7-(3,4-dimethoxyphenyl)pyrazolo[1,5-a]pyrimidin-2-yl)(3-methyl-4-(thiophene-2-carbonyl)piperazin-1-yl) methanone], the EC50 on human wild type-CFTR [1] was under 200 nM. In addition, the inhibition at 10 µM (at Human recombinant PDE4C1; in series [3]; on Human recombinant PDE4D2; in series [4]) was over 80% each time.
For `CCOc1ccc(NC(=O)c2cc3nccc(-c4ccc(OC)nc4)n3n2)cc1` [Compound 323, N-(4-ethoxyphenyl)-7-(6-methoxypyridin-3-yl) pyrazolo[1,5-a]pyrimidine-2-carboxamide], the EC50 on human wild type-CFTR [1] was at least 2000 nM. In addition, the inhibition at 10 µM on Human recombinant PDE4C1 is under 50%; in series [3], 50 to 80%; at Human recombinant PDE4D2, under 50%; in series [4] it was under 50%.
For the molecule `COc1ccc(-c2ccnc3cc(C(=O)N[C@H]4CC[C@H](C(=O)OC)CC4)nn23)cc1OC` [Compound 10, methyl (1r,4r)-4-(7-(3,4-dimethoxyphenyl)pyrazolo[1,5-a]pyrimidine-2-carboxamido)cyclohexane-1-carboxylate], the inhibition at 10 µM (on Human recombinant PDE4C1; in series [3]; at Human recombinant PDE4D2; in series [4]) was over 80% throughout. Moreover, the solubility at 90 min in series [5] lay in the range of 0.1 to 10 µg/mL (≈ 0.228 to 22.8 µM).
As to `COc1ccc(-c2ccnc3cc(C(=O)N4CCN(S(=O)(=O)c5ccccc5)[C@@H](C)C4)nn23)cc1OC` [Compound 355, (S)-(7-(3,4-dimethoxy-phenyl)pyrazolo[1,5-a]pyrimidin-2-yl)(3-methyl-4-(phenylsulfonyl)piperazin-1-yl)methanone], the EC50 on human wild type-CFTR [1] is under 200 nM. The inhibition at 10 µM (at Human recombinant PDE4C1; in series [3]; on Human recombinant PDE4D2; in series [4]) was over 80% each time.
`COC(=O)c1ccc(NC(=O)c2cc3ncc(-c4ccc(OC)c(OC)c4)cn3n2)cc1` [Compound 239, methyl 4-(6-(3,4-dimethoxyphenyl)pyrazolo[1,5-a]pyrimidine-2-carboxamido)benzoate]: the EC50 on human wild type-CFTR [1] was at least 2000 nM. The inhibition at 10 µM (on Human recombinant PDE4C1; in series [3]; on Human recombinant PDE4D2; in series [4]) was under 50% in each case.
Regarding `COC(=O)c1ccc(NC(=O)c2cc3nccc(-c4ccc(OC)c(OC)c4)n3n2)c(F)c1` [Compound 136, methyl 4-(7-(3,4-dimethoxyphenyl)pyrazolo[1,5-a]pyrimidine-2-carboxamido)-3-fluorobenzoate], the inhibition at 10 µM (at Human recombinant PDE4C1; in series [3]; on Human recombinant PDE4D2; in series [4]) was over 80% in each case. Besides, the solubility at 90 min in series [5] is under 0.1 µg/mL.
Take `CCOc1ccc(C(=O)Nc2cc3nccc(-c4ccc(OC)c(OC)c4)n3n2)cc1` [Compound 287, N-(7-(3,4-dimethoxyphenyl)pyrazolo[1,5-a]pyrimidin-2-yl)-4-ethoxybenzamide]: on human wild type-CFTR [1], the EC50 is 200 to 2000 nM. Besides, the inhibition at 10 µM at Human recombinant PDE4C1 is under 50%; in series [3], 50 to 80%; on Human recombinant PDE4D2 it was 50 to 80%; in series [4], 50 to 80%.
With `COc1ccc(-c2ccnc3cc(C(=O)Nc4ccc(OCCN5CCOCC5)cc4)nn23)cc1OC` [Compound 198, 7-(3,4-dimethoxyphenyl)-N-(4-(2-morpholinoethoxy)phenyl)pyrazolo[1,5-a]pyrimidine-2-carboxamide], the EC50 at human wild type-CFTR [1] and at human wild type-CFTR [2] was under 200 nM throughout. Moreover, the inhibition at 10 µM (at Human recombinant PDE4C1; in series [3]; on Human recombinant PDE4D2; in series [4]) was over 80% each time.
For `COC(=O)c1ccccc1NC(=O)c1cc2nccc(-c3ccc(OC)c(OC)c3)n2n1` [Compound 7, methyl 2-(7-(3,4-dimethoxyphenyl)pyrazolo [1,5-a]pyrimidine-2-carboxamido)benzoate], the inhibition at 10 µM (at Human recombinant PDE4C1; in series [3]; on Human recombinant PDE4D2; in series [4]) was under 50% throughout. Also, the solubility at 90 min in series [5] is under 0.1 µg/mL.
Turning to `COC(=O)c1ccc(NC(=O)c2cc3nccc(-c4ccc(OC)c(OC)c4)n3n2)cc1OC` [Compound 192, methyl 4-(7-(3,4-dimethoxyphenyl)pyrazolo [1,5-a]pyrimidine-2-carboxamido)-2-methoxybenzoate], the EC50 on human wild type-CFTR [1] is under 200 nM. For the same molecule, the inhibition at 10 µM (at Human recombinant PDE4C1; in series [3]; at Human recombinant PDE4D2; in series [4]) was over 80% in each case.
